Molecules are shown by their SMILES.

This data set is described as follows: in vitro. The settings on record: human, hela cells.
Setting [1] is: % viability, bulk resorufin, single well.

One may read the viability as a read-out of living cells in per cent, often relative to untreated cells. With `Cn1cc(-c2nccnc2OC(c2ccccc2)c2ccccc2)cn1` [CBK107073], the viability at 28.5 h, 10 µM (% viability) was 103%. As to `CC(C)N(CCOc1nccnc1-c1cnn(C)c1)C(C)C` [CBK107084], under “% viability”, the viability at 28.5 h, 10 µM is 103%. For `CCCCOc1nccnc1-c1cnn(C)c1` [CBK107085], under “% viability”, the viability at 28.5 h, 10 µM was 92.8%. On to `c1ccc(Cn2cc(-c3nccnc3OCc3ccccn3)cn2)cc1` [CBK107088], for which the viability at 28.5 h, 10 µM (% viability) worked out at 98.9%. Regarding `c1ccc(Cn2cc(-c3nccnc3OC(c3ccccc3)c3ccccc3)cn2)cc1` [CBK107093], under “% viability”, the viability at 28.5 h, 10 µM came out at 88.2%. Still for that read-out and setting: as for `O=C1NCCN1CCOc1nccnc1-c1cnn(Cc2ccccc2)c1` [CBK107094], the figure is 86.3%. The same measure, in the same setting: as for `CC(=O)Nc1cccc(Oc2nccnc2-c2cnn(Cc3ccccc3)c2)c1` [CBK107096], the figure is 101%; as for `COc1nccnc1-c1ccc(Cl)c(Cl)c1` [CBK107110], 98.7%. Same read-out and setting: as for `CN1CCCN(C(=O)c2ccc(-c3nc(-c4ccc(C#N)cc4)cnc3N)cc2)CC1` [CBK107140], the figure is 93.9%; as for `Cc1ccccc1NC(=O)c1ccc(Br)o1` [CBK107152], 88.2%. For `CC(C)Nc1cc(SC2CCCCC2)ncn1` [CBK107163], the viability at 28.5 h, 10 µM (% viability) turned out to be 92.4%.

For the compound `CNC(=O)CSc1nc2ccccc2nc1NC(C)C` [CBK107171], where the note is “% viability”, the viability at 28.5 h, 10 µM came to 99.7%.

Regarding `CCOC(=O)CSc1nc2cc(Cl)c(Cl)cc2nc1NC(C)C` [CBK107173], the viability at 28.5 h, 10 µM (% viability) turned out to be 97.1%. For `FC(F)(F)c1cccc(CSc2nccnc2N2CCCC2)c1` [CBK107178], the viability at 28.5 h, 10 µM (% viability) worked out at 94.7%. Same read-out and setting: the figure for `FC(F)(F)c1cccc(CSc2nc3ccccc3nc2N2CCCC2)c1` [CBK107190] is 91.5%; for `FC(F)(F)c1cccc(SCc2ccc(Cl)cc2)n1` [CBK107197] it is 91.9%. Consider `Fc1ccc(CSc2nc3ccccc3nc2C(F)(F)F)cc1` [CBK107199], for which, for the setting “% viability”, the viability at 28.5 h, 10 µM was determined as 98.6%. Same read-out and setting: the figure for `CCOC(=O)CSc1nc2ccccc2nc1C(F)(F)F` [CBK107200] is 92.8%; for `FC(F)(F)c1nc2ccccc2nc1SCc1ccco1` [CBK107201] it is 85.9%. Take `FC(F)(F)c1nc2ccccc2nc1SCCc1ccccc1` [CBK107204]: the viability at 28.5 h, 10 µM (% viability) is 90.3%. Take `Cc1ccccc1S(=O)(=O)Nc1cc(CN2C[C@H](C)NC[C@H]2C)c2occc2c1` [CBK107210T]: the viability at 28.5 h, 10 µM (% viability) came out at 108%. Same read-out and setting: as for `O=C(NCc1ccccn1)c1ccccc1Nc1cccc(C(F)(F)F)c1` [CBK107252], the figure is 86.3%; as for `O=C(NCCN1CCCC1)c1cc2cc(Cl)ccc2[nH]1` [CBK107267], 88%; as for `O=C(Nc1cccnc1)c1cc2cc(F)ccc2[nH]1` [CBK107272], 93.2%. For `O=C(NCc1ccccn1)c1cc2cc(F)ccc2[nH]1` [CBK107276], under “% viability”, the viability at 28.5 h, 10 µM was 102%. As to `O=C(c1cc2cc(F)ccc2[nH]1)N1CCN(c2ncccn2)CC1` [CBK107280], where the note is “% viability”, the viability at 28.5 h, 10 µM is 91.8%. Turning to `CC(C)(C)c1cc(C(=O)Nc2ccncc2)n(Cc2ccc(Cl)cc2Cl)n1` [CBK107284], the viability at 28.5 h, 10 µM (% viability) was 107%. With `CC(C)(C)c1cc(C(=O)N2CCN(c3ncccn3)CC2)n(Cc2ccc(Cl)cc2Cl)n1` [CBK107294], for the setting “% viability”, the viability at 28.5 h, 10 µM was 105%. For `O=C(Cc1csc(-c2ccc(Cl)cc2)n1)Nc1cccnc1` [CBK107300], where the note is “% viability”, the viability at 28.5 h, 10 µM stood at 101%. Consider `O=C(Nc1cccnc1)c1cc2cc(OC(F)(F)F)ccc2[nH]1` [CBK107313], for which the viability at 28.5 h, 10 µM (% viability) is 95.1%. As for `O=C(Nc1ccncc1)c1cc2cc(Cl)ccc2[nH]1` [CBK107340], the viability at 28.5 h, 10 µM (% viability) was 95%.

As for `O=C(c1cc2cc(Cl)ccc2[nH]1)N1CCN(c2ccccn2)CC1` [CBK107343], under “% viability”, the viability at 28.5 h, 10 µM came out at 93.7%. For the compound `NCCNC(=O)c1cc2cc(F)ccc2[nH]1` [CBK107345], the viability at 28.5 h, 10 µM (% viability) came out at 95.8%. As for `O=C(Nc1ccncc1)c1cc2cc(F)ccc2[nH]1` [CBK107346], the viability at 28.5 h, 10 µM (% viability) turned out to be 103%.

For `CN(C)CCCNC(=O)c1cnc2cc(Cl)ccc2c1O` [CBK107354], the viability at 28.5 h, 10 µM (% viability) turned out to be 94.4%.

For `O=C(c1cnc2cc(Cl)ccc2c1O)N1CCN(c2ncccn2)CC1` [CBK107358], the viability at 28.5 h, 10 µM (% viability) came to 108%. On the same count and under the same terms, the figure for `CC(C)(C)c1cc(C(=O)Nc2ccccn2)n(Cc2ccc(Cl)cc2Cl)n1` [CBK107361] is 89.6%; for `O=C(Cc1csc(-c2ccc(Cl)cc2)n1)Nc1ccccn1` [CBK107364] it is 85.8%.

As for `CCCc1c(C(=O)NCCCN(C)C)cnn1-c1cc(Cl)cc(Cl)c1` [CBK107376], for the setting “% viability”, the viability at 28.5 h, 10 µM turned out to be 89.3%.

Regarding `CCCc1c(C(=O)N2CCN(c3ncccn3)CC2)cnn1-c1cc(Cl)cc(Cl)c1` [CBK107383], the viability at 28.5 h, 10 µM (% viability) is 102%.

With `Cc1c(C(=O)Nc2cccnc2)nnn1-c1cccc(C(F)(F)F)c1` [CBK107389], the viability at 28.5 h, 10 µM (% viability) was 97.1%. Turning to `Cc1c(C(=O)NCc2ccccn2)nnn1-c1cccc(C(F)(F)F)c1` [CBK107395], for the setting “% viability”, the viability at 28.5 h, 10 µM stood at 92.9%.

As for `O=C(Nc1cccnc1)c1cc(C(=O)c2ccc(Cl)cc2Cl)c[nH]1` [CBK107406], where the note is “% viability”, the viability at 28.5 h, 10 µM came out at 93.7%. Regarding `O=C(c1c[nH]c(C(=O)N2CCN(c3ccccn3)CC2)c1)c1ccc(Cl)cc1Cl` [CBK107419], the viability at 28.5 h, 10 µM (% viability) was determined as 86.5%. With `O=C(NCCN1CCCC1)c1cnc2cc(C(F)(F)F)ccc2c1O` [CBK107426], where the note is “% viability”, the viability at 28.5 h, 10 µM was determined as 104%. Take `O=C(c1cnc2cc(C(F)(F)F)ccc2c1O)N1CCN(c2ccccn2)CC1` [CBK107431]: the viability at 28.5 h, 10 µM (% viability) came to 94.8%. Consider `COc1ccc(Nc2cc(Cl)ccc2C(=O)NC(C)(C)CN2CCOCC2)cn1` [CBK107436], for which the viability at 28.5 h, 10 µM (% viability) turned out to be 97.1%. For `O=C(Nc1ccccn1)c1cnn(-c2ccc(Cl)cc2)c1C(F)(F)F` [CBK107442], the viability at 28.5 h, 10 µM (% viability) turned out to be 92.2%. As to `O=C(c1cnn(-c2ccc(Cl)cc2)c1C(F)(F)F)N1CCN(c2ncccn2)CC1` [CBK107448], under “% viability”, the viability at 28.5 h, 10 µM was determined as 98%. Same read-out and setting: the figure for `NCCCNC(=O)c1ccc(-c2cccc(C(F)(F)F)c2)o1` [CBK107454] is 89.4%; for `O=C(Nc1cccnc1)c1cnc2cc(C(F)(F)F)ccc2c1O` [CBK107474] it is 77.8%; for `CCn1c(SCC(=O)Nc2ccc([N+](=O)[O-])cc2)nnc1C(NC(=O)c1ccccc1)C(C)C` (centres unmarked) [CBK107508] it is 94.9%. As to `Cc1nc(C)c(C(=O)Nc2ccccc2-c2ccc3c(c2)COC2(CCNCC2)O3)s1` [CBK107628], the viability at 28.5 h, 10 µM under setting [1] was determined as 96.8%. Regarding `CN(C)c1cccc(NC(=O)Nc2ncc(Br)c3cccnc23)c1` [CBK107633], the viability at 28.5 h, 10 µM (% viability) came out at 94%.

As to `O=C(Nc1ccc(OC(F)F)cc1)Nc1ncc(Br)c2cccnc12` [CBK107635], the viability at 28.5 h, 10 µM (% viability) amounted to 115%. Regarding `CN(C)C(=O)Oc1ccc2[nH]c3c(c2c1)CCNC31CCN(CCOc2ccccc2)C1` (centres unmarked) [CBK107679], the viability at 28.5 h, 10 µM is 95.1%. For the compound `O=C(Nc1ccc2oc(-c3cccnc3)nc2c1)c1ccc(-c2ccc(OC(F)(F)F)cc2)o1` [CBK107713], the viability at 28.5 h, 10 µM (% viability) worked out at 101%. Same read-out and setting: the figure for `CNC(=O)CSc1nccc(C(F)(F)F)n1` [CBK107759] is 101%; for `CNCc1cc(Br)c(OCC(=O)Nc2ccccc2OC)c(OC)c1` [CBK107772] it is 106%; for `NC1=C2NN(c3ccc(Cl)cc3Cl)N=C2N(c2ccccc2)N1` [CBK107773] it is 98.1%. In the case of `Clc1ccccc1OCCNC1CCc2[nH]c3ccccc3c2C1` (centres unmarked) [CBK107790], the viability at 28.5 h, 10 µM (% viability) was 107%. For `Fc1ccc(OCCNC2CCc3[nH]c4ccccc4c3C2)cc1` (centres unmarked) [CBK107791], the viability at 28.5 h, 10 µM (% viability) was 83.7%.

`COC(=O)CCCN1CCCC12CCc1[nH]c3ccccc3c1C2` (centres unmarked) [CBK107798T]: the viability at 28.5 h, 10 µM (% viability) was determined as 95.6%. As to `Oc1ccc(-c2cncc(Nc3cccc(Br)c3)n2)cc1` [CBK107803], the viability at 28.5 h, 10 µM (% viability) was 84.8%. For `CC(C)(C)OC(=O)N1CCC2(CC1)OCc1cc(-c3cccc(C(=O)O)c3)ccc1O2` [CBK107809], the viability at 28.5 h, 10 µM under setting [1] stood at 87.5%.

Turning to `CCCc1cc(-c2c(Cl)cccc2Cl)[nH]n1` [CBK107818], under “% viability”, the viability at 28.5 h, 10 µM was determined as 91.2%.

Consider `COc1ccc(C(C)NC(=O)c2cccc(-c3ccc4c(c3)COC3(CCN(C(=O)OC(C)(C)C)CC3)O4)c2)cc1` (centres unmarked) [CBK107833], for which the viability at 28.5 h, 10 µM under setting [1] came out at 100%.

As for `CC(C)(C)OC(=O)N1CCC2(CC1)OCc1cc(-c3cccc(C(=O)NCc4ccc(Cl)cc4)c3)ccc1O2` [CBK107834], under setting [1], the viability at 28.5 h, 10 µM is 93.3%. Consider `O=C(NC1CCCCCC1)c1[nH]nc(O)c1Cc1c(Cl)cccc1Cl` [CBK107847], for which, for the setting “% viability”, the viability at 28.5 h, 10 µM is 91.9%.

In the case of `COc1ccc(CCCC(=O)Nc2cc(N3CCNCC3)ncn2)cc1OC` [CBK107856], the viability at 28.5 h, 10 µM (% viability) amounted to 93.9%. As to `CC(C)Nc1nc2ccccc2nc1SCCC(=O)O` [CBK107858], the viability at 28.5 h, 10 µM (% viability) was 106%. Still for that read-out and setting: as for `O=C(O)CCSc1nc2ccccc2nc1N1CCCC1` [CBK107862], the figure is 95.7%; as for `O=C(O)CSc1nc2cc(Cl)c(Cl)cc2nc1N1CCCC1` [CBK107863], 92.9%. As to `O=C(Cc1ccc(Cl)c(Cl)c1)Nc1ccccc1-c1ccc2c(c1)COC1(CCNCC1)O2` [CBK107890], the viability at 28.5 h, 10 µM under setting [1] came to 100%.

For the compound `COc1ccccc1-c1[nH]nc(O)c1Cc1c(Cl)cccc1Cl` [CBK107933], the viability at 28.5 h, 10 µM (% viability) was determined as 86.1%. The same measure, in the same setting: the figure for `CCC1(CC)OC(NC23CC4CC(CC(O)(C4)C2)C3)=NC1=O` [CBK107938] is 99.1%; for `Cc1ccc(C)c2[nH]c(=O)c(CN(CCN3CCOCC3)Cc3nnnn3Cc3ccccc3)cc12` [CBK108063] it is 93.1%. Still for that read-out and setting: as for `CCc1cc2cc3c(cc2nc1SCC(=O)Nc1cc(OC)ccc1OC)OCO3` [CBK108546], the figure is 91.8%. Take `CCc1cc2cc3c(cc2nc1SCC(=O)Nc1cccc(C(C)=O)c1)OCO3` [CBK108551]: the viability at 28.5 h, 10 µM (% viability) amounted to 92.6%.

In the case of `Cc1cc(C)c2cc(CN(CCO)Cc3nnnn3CC3CCCO3)c(=O)[nH]c2c1` (centres unmarked) [CBK108944], the viability at 28.5 h, 10 µM (% viability) was determined as 80%.
